Values of other authors, collected in patent US20100099894A1, “Method for the Synthesis of Cyclic Acetals by the Reactive Extraction of a Polyol in a Concentrated Solution” (priority 2006, published 2010).

Settings: for solubility in water: aqueous solution, at room temperature, data from Yaw's Handbook

Structure (SMILES) | miscibility in water (background description of Solketal) | solubility in water [mg/kg]
CC1(C)OCC(CO)O1 (centres unmarked) [Solketal] | miscible in water | 
CC(=O)c1ccccc1 [acetophenone] |  | 6842
O=Cc1ccccc1 [benzaldehyde] |  | 6570
CC(C)CC(=O)CC(C)C [diisobutyl ketone] |  | 2640
CC(C)C(=O)C(C)C [diisopropyl ketone] |  | 5700

The remaining lines, values ahead:

miscibility in water (background description of Solketal) | solubility in water [mg/kg] | Structure (SMILES)
 | 1516 | CCCCCCC=O [n-heptanal]
 | 370 | CCCCCCCC=O [n-octanal]
 | 11700 | CCCCC=O [pentanal]
